Measured values published in patent US11046699B2, “Pyrazolo-pyrimidin-amino-cycloalkyl compounds and their therapeutic uses” (RAPT THERAPEUTICS, INC., priority 2018, dated 2021).
Counter-ions that a name gives are not always drawn. Like-named read-outs stand apart in the source and are kept apart here.

Biological target: GCN2 (Homo sapiens, UniProt Q9P2K8)
Assay: GCN2 enzymatic endpoint assay: phosphorylation of GFP-eIF2α measured by TR-FRET (Lanthascreen)
Type: biochemical
Procedure, shortened: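 Kinase activity is measured as phosphorylation of GFP-labelled eIF2α (80 nM) with ATP at 2 μM. Incubation runs 90 minutes at room temperature before EDTA quench and terbium-antibody detection.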

[1] = tested as described in Example 77, compound and/or hydrochloride, dihydrochloride or trifluoroacetic acid salt, read-out: IC 50 Activity

Chain of GCN2 (Q9P2K8 whole entry): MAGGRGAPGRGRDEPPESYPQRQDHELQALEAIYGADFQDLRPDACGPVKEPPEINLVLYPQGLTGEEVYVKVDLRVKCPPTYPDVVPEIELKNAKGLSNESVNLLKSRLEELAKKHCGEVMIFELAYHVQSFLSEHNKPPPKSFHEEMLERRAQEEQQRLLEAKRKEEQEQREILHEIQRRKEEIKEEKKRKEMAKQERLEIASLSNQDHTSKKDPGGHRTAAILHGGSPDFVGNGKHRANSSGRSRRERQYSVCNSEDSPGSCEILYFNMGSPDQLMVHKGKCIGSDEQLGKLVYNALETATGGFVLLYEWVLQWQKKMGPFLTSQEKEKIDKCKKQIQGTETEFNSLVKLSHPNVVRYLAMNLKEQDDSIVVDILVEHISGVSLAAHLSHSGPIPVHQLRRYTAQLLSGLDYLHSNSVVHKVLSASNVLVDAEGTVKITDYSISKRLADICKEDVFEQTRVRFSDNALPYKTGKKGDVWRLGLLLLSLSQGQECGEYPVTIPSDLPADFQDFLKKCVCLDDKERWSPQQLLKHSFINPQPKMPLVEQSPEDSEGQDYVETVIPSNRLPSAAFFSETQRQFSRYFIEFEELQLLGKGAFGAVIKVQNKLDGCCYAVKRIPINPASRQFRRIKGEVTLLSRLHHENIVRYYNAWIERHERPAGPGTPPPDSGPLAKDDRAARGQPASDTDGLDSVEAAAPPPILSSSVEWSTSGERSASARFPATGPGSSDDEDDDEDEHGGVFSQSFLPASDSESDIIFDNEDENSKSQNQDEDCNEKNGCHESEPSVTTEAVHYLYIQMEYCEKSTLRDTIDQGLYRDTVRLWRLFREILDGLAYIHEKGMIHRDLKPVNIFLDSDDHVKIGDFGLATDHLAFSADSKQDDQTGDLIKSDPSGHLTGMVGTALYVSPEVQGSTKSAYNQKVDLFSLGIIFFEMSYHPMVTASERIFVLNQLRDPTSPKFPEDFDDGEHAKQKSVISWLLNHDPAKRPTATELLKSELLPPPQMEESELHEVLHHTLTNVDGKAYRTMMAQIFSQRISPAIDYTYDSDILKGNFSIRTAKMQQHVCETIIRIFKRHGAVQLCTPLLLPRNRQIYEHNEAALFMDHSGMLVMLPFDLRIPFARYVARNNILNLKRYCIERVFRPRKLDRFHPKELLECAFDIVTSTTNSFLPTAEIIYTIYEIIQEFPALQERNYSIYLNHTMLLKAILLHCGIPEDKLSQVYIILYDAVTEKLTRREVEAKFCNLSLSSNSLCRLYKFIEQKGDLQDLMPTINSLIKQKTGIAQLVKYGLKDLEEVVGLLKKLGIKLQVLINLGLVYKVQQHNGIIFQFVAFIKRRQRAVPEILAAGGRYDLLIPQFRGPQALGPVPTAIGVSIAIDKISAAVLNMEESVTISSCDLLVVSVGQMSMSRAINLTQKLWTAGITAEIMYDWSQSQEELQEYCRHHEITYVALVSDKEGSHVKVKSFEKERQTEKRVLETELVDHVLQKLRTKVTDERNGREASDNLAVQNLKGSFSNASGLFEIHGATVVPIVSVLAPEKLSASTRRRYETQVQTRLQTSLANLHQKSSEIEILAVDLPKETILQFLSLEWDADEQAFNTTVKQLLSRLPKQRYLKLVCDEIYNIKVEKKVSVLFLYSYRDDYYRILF

SMILES | IC50 [1] | IC50 (GCN2 biochemical IC50, 4 nM GCN2, 2 μM ATP, 80 nM GFP-eIF2α, 90 min RT, read-out: GCN2 activity)
Cc1nnc(-c2ccc(-n3nc(Br)c4cnc(NC5CC(P(C)(C)=O)C5)nc43)cc2)s1 (centres unmarked) [3-bromo-N-(3-dimethylphosphorylcyclo-butyl)-1-[4-(5-methyl-1,3,4-thiadiazol-2-yl)phenyl]pyrazolo[3,4-d]pyrimidin-6-amine] | 25 to 200 nM | 
CNC(=O)[C@]1(C)CC[C@@H](Nc2ncc3c(Br)nn(-c4ccc5nncn5c4)c3n2)C1 [(1R,3R)-3-[[3-bromo-1-([1,2,4]triazolo [4,3-a]pyridin-6-yl)pyrazolo[3,4-d]pyrimidin-6-yl]amino]-N,1-dimethyl-cyclopentanecarboxamide] | 25 to 200 nM | 
COC1(C)CN(C(=O)[C@]2(C)CC[C@@H](Nc3ncc4c(Br)nn(-c5cc(F)c6ncccc6c5)c4n3)C2)C1 [[(1R,3R)-3-[[3-bromo-1-(8-fluoro-6-quinolyl)pyrazolo[3,4-d]pyrimidin-6-yl]amino]-1-methyl-cyclopentyl]-(3-methoxy-3-methyl-azetidin-1-yl)methanone] | < 25 nM | 
C[C@H]1CN(C(=O)[C@@H]2CC[C@@H](Nc3ncc4c(Br)nn(-c5ccc6ncccc6c5)c4n3)C2)CCO1 [((1R,3R)-3-((3-bromo-1-(quinolin-6-yl)-1H-pyrazolo[3,4-d]pyrimidin-6-yl)amino)cyclo-pentyl)((S)-2-methylmorpholino)methanone] | 25 to 200 nM | 
CNC(=O)[C@]1(C)CC[C@@H](Nc2ncc3c(Br)nn(-c4ccc5ncn(CCN)c(=O)c5c4)c3n2)C1 | 25 to 200 nM | 
O=C([C@@H]1CC[C@@H](Nc2ncc3c(Br)nn(-c4cc(F)c5ncccc5c4)c3n2)C1)N1CCN2C(=O)CC[C@@H]2C1 [(8aR)-2-[(1R,3R)-3-[[3-bromo-1-(8-fluoro-6-quinolyl)pyrazolo[3,4-d]pyrimidin-6-yl]amino]cyclopentane-carbonyl]-1,3,4,7,8,8a-hexahydro-pyrrolo[1,2-a]pyrazin-6-one] | < 25 nM | 
Cc1nnc(-c2ccc(-n3nc(Br)c4cnc(NC5CC(O)C5)nc43)cc2)s1 (centres unmarked) [3-[[3-bromo-1-[4-(5-methyl-1,3,4-thiadiazol-2-yl)phenyl]pyrazolo[3,4-d]pyrimidin-6-yl]amino]cyclobutanol] | 25 to 200 nM | 
CNC(=O)[C@@]1(COC)CC[C@@H](Nc2ncc3c(I)nn(-c4cc(F)c5ncccc5c4)c3n2)C1 [(1S,3R)-3-[[1-(8-fluoro-6-quinolyl)-3-iodo-pyrazolo[3,4-d]pyrimidin-6-yl]amino]-1-(methoxymethyl)-N-methyl-cyclopentane-carboxamide] | 25 to 200 nM | 
CN1CCC2(CCN(C(=O)[C@@H]3CC[C@@H](Nc4ncc5c(Br)nn(-c6cc(F)c7ncccc7c6)c5n4)C3)C2)C1=O (stereo partly drawn) [7-((1R,3R)-3-((3-bromo-1-(8-fluoroquinolin-6-yl)-1H-pyrazolo[3,4-d]pyrimidin-6-yl)amino)cyclopentane-1-carbonyl)-2-methyl-2,7-diazaspiro[4.4]nonan-1-one] | 25 to 200 nM | 
CNC(=O)[C@]1(C)CC[C@@H](Nc2ncc3c(Br)nn(-c4cc(F)cc(CCO)c4)c3n2)C1 [(1R,3R)-3-[[3-bromo-1-[3-fluoro-5-(2-hydroxyethyl)phenyl]pyrazolo [3,4-d]pyrimidin-6-yl]amino]-N,1-dimethyl-cyclopentanecarboxamide] | < 25 nM | 
CNC(=O)[C@]1(C(C)C)CC[C@@H](Nc2ncc3c(Br)nn(-c4cc(F)c5ncccc5c4)c3n2)C1 [Example 37, (1R,3R)-3-((3-bromo-1-(8-fluoroquinolin-6-yl)-1H-pyrazolo[3,4-d]pyrimidin-6-yl)amino)-1-isopropyl-N-methylcyclopentane-1-carboxamide hydrochloride] |  | < 25 nM
Cc1nnc(-c2ccc(-n3nc(Br)c4cnc(N[C@@H]5CC[C@@](C)(C(=O)NCC(F)F)C5)nc43)cc2CCC#N)s1 [(1R,3R)-3-[[3-bromo-1-[3-(2-cyanoethyl)-4-(5-methyl-1,3,4-thiadiazol-2-yl)phenyl]pyrazolo[3,4-d]pyrimidin-6-yl]amino]-N-(2,2-difluoroethyl)-1-methyl-cyclopentanecarboxamide] | 25 to 200 nM | 
Cc1nnc(-c2ccc(-n3nc(Br)c4cnc(N[C@@H]5CCC[C@@H](P(C)(C)=O)C5)nc43)cc2)s1 [3-bromo-N-[(1R,3R)-3-dimethylphosphoryl-cyclohexyl]-1-[4-(5-methyl-1,3,4-thiadiazol-2-yl)phenyl]pyrazolo[3,4-d]pyrimidin-6-amine] | 25 to 200 nM | 
NCCc1cc(-n2nc(Br)c3cnc(NC4CC(O)C4)nc32)cc2cccnc12 (centres unmarked) [3-[[1-[8-(2-aminoethyl)-6-quinolyl]-3-bromo-pyrazolo[3,4-d]pyrimidin-6-yl]amino] cyclobutanol] | 25 to 200 nM | 
CNC(=O)[C@]1(C)CC[C@@H](Nc2ncc3c(Br)nn(-c4ccc(C#N)c(OCC5(F)CNC5)c4)c3n2)C1 [(1R,3R)-3-[[3-bromo-1-[4-cyano-3-[(3-fluoroazetidin-3-yl)methoxy]phenyl]pyrazolo[3,4-d]pyrimidin-6-yl]amino]-N,1-dimethyl-cyclopentanecarboxamide] | 25 to 200 nM | 
Cc1nnc(-c2ccc(-n3nc(Br)c4cnc(NC5CC(S(C)(=O)=O)C5)nc43)cc2)s1 (centres unmarked) [3-bromo-N-(3-methylsulfonylcyclobutyl)-1-[4-(5-methyl-1,3,4-thiadiazol-2-yl)phenyl] pyrazolo[3,4-d]pyrimidin-6-amine] | 25 to 200 nM | 

SMILES | IC50 [1] | IC50 (GCN2 biochemical IC50, 4 nM GCN2, 2 μM ATP, 80 nM GFP-eIF2α, 90 min RT, read-out: GCN2 activity)
Cc1nnc(-c2ccc(-n3nc(Br)c4cnc(N[C@@H]5CC[C@@](C)(C(=O)N6CCNCC6)C5)nc43)cc2CCC#N)s1 | 25 to 200 nM | 
CNC(=O)[C@]1(C)CC[C@@H](Nc2ncc3c(Br)nn(-c4ccc5c(c4)OC(C)(C)C(=O)N5C)c3n2)C1 [(1R,3R)-3-[[3-bromo-1-(2,2,4-trimethyl-3-oxo-1,4-benzoxazin-7-yl)pyrazolo [3,4-d]pyrimidin-6-yl]amino]-N,1-dimethyl-cyclopentanecarboxamide] | 25 to 200 nM | 
CNC(=O)[C@]1(C)CC[C@@H](Nc2ncc3c(Br)nn(-c4ccc5nc(OC)ncc5c4)c3n2)C1 [(1R,3R)-3-[[3-bromo-1-(2-methoxy-quinazolin-6-yl)pyrazolo[3,4-d]pyrimidin-6-yl]amino]-N,1-dimethyl-cyclopentane-carboxamide; 2,2,2-trifluoroacetic acid] | < 25 nM | 
CC1(C(=O)N2CCNCC2)CC[C@@H](Nc2ncc3c(Br)nn(-c4cc(F)c5ncccc5c4)c3n2)C1 (stereo partly drawn) [[(3R)-3-[[3-bromo-1-(8-fluoro-6-quinolyl)pyrazolo[3,4-d]pyrimidin-6-yl]amino]-1-methyl-cyclopentyl]-piperazin-1-yl-methanone] | < 25 nM | 
CNC(=O)[C@]1(C)CC[C@@H](Nc2ncc3c(Br)nn(-c4cc(CN)c5nccnc5c4)c3n2)C1 [(1R,3R)-3-[[1-[8-(aminomethyl)quinoxalin-6-yl]-3-bromo-pyrazolo[3,4-d]pyrimidin-6-yl]amino]-N,1-dimethyl-cyclopentane-carboxamide] | 25 to 200 nM | 
CNC(=O)[C@]1(C)CC[C@@H](Nc2ncc3c(Br)nn(-c4ccc(-c5nncs5)cc4)c3n2)C1 | 25 to 200 nM | 
CN1CCN(C(=O)[C@@H]2CC[C@@H](Nc3ncc4c(Br)nn(-c5cc(F)c6ncccc6c5)c4n3)C2)CC1=O [4-((1R,3R)-3-((3-bromo-1-(8-fluoroquinolin-6-yl)-1H-pyrazolo[3,4-d]pyrimidin-6-yl)amino)cyclopentane-1-carbonyl)-1-methyl-piperazin-2-one] | 25 to 200 nM | 
CNC(=O)[C@]1(C)CC[C@@H](Nc2ncc3c(Br)nn(-c4ccc(-c5nnc(C(=O)N(C)CCN(C)C)s5)cc4)c3n2)C1 [5-[4-[3-bromo-6-[[(1R,3R)-3-methyl-3-(methylcarbamoyl)cyclopentyl]amino]pyrazolo[3,4-d]pyrimidin-1-yl]phenyl]-N-[2-(dimethylamino)ethyl]-N-methyl-1,3,4-thiadiazole-2-carboxamide] | 25 to 200 nM | 
CNC(=O)[C@]1(C)CC[C@@H](Nc2ncc3c(Br)nn(-c4ccc5c(c4)CNC(=O)C5)c3n2)C1 [(1R,3R)-3-[[3-bromo-1-(3-oxo-2,4-dihydro-1H-isoquinolin-7-yl)pyrazolo [3,4-d]pyrimidin-6-yl]amino]-N,1-dimethyl-cyclopentanecarboxamide] | 25 to 200 nM | 
CN1C(=O)CCC1CNC(=O)[C@@H]1CC[C@@H](Nc2ncc3c(Br)nn(-c4cc(C#N)c5ncccc5c4)c3n2)C1 (some centres unmarked) | < 25 nM | 
CC1(C(=O)NC2CCOCC2)CC(Nc2ncc3c(Br)nn(-c4ccc5ncccc5c4)c3n2)C1 (centres unmarked) | 25 to 200 nM | 
CNC(=O)[C@@H]1CC[C@@H](Nc2ncc3c(Br)nn(-c4cc(C#N)c5c(c4)CCO5)c3n2)C1 [(1R,3R)-3-[[3-bromo-1-(7-cyano-2,3-dihydro-benzofuran-5-yl)pyrazolo[3,4-d]pyrimidin-6-yl]amino]-N-methyl-cyclopentanecarboxamide] | 25 to 200 nM | 
CNC(=O)[C@]1(C)CC[C@@H](Nc2ncc3c(Br)nn(-c4ccc(-c5nnc(C(C)(C)O)o5)cc4)c3n2)C1 [(1R,3R)-3-[[3-bromo-1-[4-[5-(1-hydroxy-1-methyl-ethyl)-1,3,4-oxadiazol-2-yl]phenyl]pyrazolo[3,4-d]pyrimidin-6-yl]amino]-N,1-dimethyl-cyclopentanecarboxamide] | 25 to 200 nM | 
CNC(=O)[C@]1(C)CC[C@@H](Nc2ncc3c(Br)nn(-c4cc(CCNC(=O)OC)c5ncccc5c4)c3n2)C1 [methyl N-[2-[6-[3-bromo-6-[[(1R,3R)-3-methyl-3-(methylcarbamoyl)cyclopentyl]amino]pyrazolo[3,4-d]pyrimidin-1-yl]-8-quinolyl]ethyl]carbamate] | 25 to 200 nM | 
Cc1nnc(-c2ccc(-n3nc(Br)c4cnc(N[C@@H]5CC[C@@]6(CCNC6=O)C5)nc43)cc2CCC#N)s1 | 25 to 200 nM | 
COC1CCN(C(=O)[C@]2(C)CC[C@@H](Nc3ncc4c(Br)nn(-c5cc(F)c6ncccc6c5)c4n3)C2)C1 (stereo partly drawn) [[(1R,3R)-3-[[3-bromo-1-(8-fluoro-6-quinolyl)pyrazolo[3,4-d]pyrimidin-6-yl]amino]-1-methyl-cyclopentyl]-(3-methoxypyrrolidin-1-yl)methanone] | 25 to 200 nM | 
